Measurements taken from patent publication US20220039390A1, “USE OF […] FOR C[…] VEGETATION IN BETA VULGARIS GROWING AREAS” (KWS SAAT SE & Co. KGaA, priority 2018, published 2022).

How the values were obtained:
[1] = test system: sugar beet (Beta vulgaris); experiment: Glyphosate selection of mutagenized (EMS/ENU) M2 sugar beet plants, field spray then greenhouse treatment; type: in vivo; details: 600 g/ha glyphosate acid equivalent
Description: 6 kg seeds of sugar beet elite line T807 (3BT1760, MO population) were mutagenized with 0.5% EMS and 0.3% and 0.5%, respectively ENU, and subsequently drilled for steck production. Stecks were replanted for seed production occupying an area of 5.8 ha. M1 population sizes were 75,000 seed producing plants for EMS and 19,000 plants for ENU mutagenized seeds. The following M2 seed amounts (values given for purified seed) has been obtained: 240 kg for 0.5% EMS (idents A and B), 548 kg for 0.3% ENU (idents C and D), and 256 kg 0.5% ENU (idents E and F).
176 kg of idents A and B and 75 kg of idents C, D, E and F were sown on an approximately 15 ha spanning field site. Approximately 1 month after sowing, the entire field was sprayed with 0.88 I/ha ROUNDUP® MAX (680 g/kg glyphosate acid equivalent). Approximately 6 weeks later, plants surviving the glyphosate treatment were collected in the field, transplanted to pots and further cultivated in the greenhouses. Surviving plants were treated with 600 g/ha glyphosate acid equivalent about 2 months later. 172 plants survived that treatment in a very healthy stage without any signs of herbicide damage.
In order to identify the causative mutation behind the observed herbicide resistance sequencing analyses have been performed. […]

[2] = acid form, 25° C.; cited from earlier work

For `O=C(O)CNCP(=O)(O)O` [glyphosate, N-phosphonomethylglycine], the “resistance conferred by heterozygous P179S mutation in BvEPSPS” value ([1]; approx. 50% of standard field treatment level, based on screening and selection) is listed as “complete resistance”, the “plants that survived treatment in a very healthy stage without any signs of herbicide damage” value ([1]; potted greenhouse plants that had survived the ROUNDUP MAX field spray) is listed as 172 plants and the solubility in water [2] is listed as 1.16 % by weight.
